In brackets after ≈: the same amount, converted by molar mass.
How the values were obtained:
[1] = system: A549; test: MTT solid tumor cell proliferation inhibition, A549; type: cell-based, human; settings: Homo sapiens; for inhibition at 16 µg/mL: A549, 16 μg/mL compound, 72 h, read-out: IR (inhibition rate); for IC50: A549, 72 h, MTT
Protocol: (§1) Human solid tumor cell lines: Hep-2 (laryngeal carcinoma), A549 (human lung cancer), CaES-17 (esophageal cancer cell), PC-3 (prostate cancer), CNE (nasopharyngeal carcinoma cell), and SK-OV-3 (ovarian cancer cell), all of which are purchased from China Center For Type Culture Collection; RKO (human colon adenocarcinoma cell), MGC 803 (human gastric cancer cell), MG63 (osteosarcoma) and U87 MG (malignant glioma cell), all of which are purchased from Fuxiang Bio-tech Co. Ltd., Shanghai, China; PANC-1 (pancreatic cancer), Hep G2 (human liver cancer cell), Becap37 (human breast cancer cell), and Hela (human cervical cancer cell), all of which are donated by Cancer Research Institute of Zhejiang University, China.
(§2) Obtaining 4000 well-growing human solid tumor cells and inoculating them into wells of a 96-well cell culture plate. The culture medium is DMEM High Glucose cell culture medium containing 10% fetal bovine serum. The plate is placed in a carbon dioxide cell incubator (5% CO2) at 37° C. for 24 hours for incubation. After being added with the amidated oleanolic acid derivatives of different concentrations and mixed uniformly, the plate is placed in a carbon dioxide cell incubator (5% CO2) at 37° C. for 72 hours for incubation. Then the relative number of the living cells is determined by the MTT method. In this experiment, the cell proliferation inhibition rate in control group (not treated with any compound) is set as 0%.

[2] = system: Jurkat; test: MTT leukemia cell proliferation inhibition, Jurkat; type: cell-based; settings: Homo sapiens, 72 h; for inhibition at 16 µg/mL: 16 μg/mL compound, read-out: IR (inhibition rate); for IC50: MTT
From the text: (§3) Leukemia cell lines: leukemia cell lines: K562/adr (drug-resistant, chronic myeloid leukemia, CML), NB4 (acute promyelocytic leukemia, AML), Kasumi-1 (acute myeloid leukemia M2 type, AML-M2), Jurkat (acute lymphoblastic leukemia, ALL), all of which are donated by Cancer Research Institute of Zhejiang University, China; and H9 (acute lymphoblastic leukemia, ALL), which is purchased from China Center for Type Culture Collection (CCTCC).
(§4) Reagents: The standard sample of oleanolic acid (OA) is purchased from Hua Kang Pharmaceutical Raw Material Factory, Shifang City, Sichuan, China; and the amidated oleanolic acid derivatives are prepared according to the present invention.
(§5) Obtaining 6000 well-growing leukemia cells and inoculating them into wells of a 96-well cell culture plate. The culture medium is the 1640 cell culture medium containing 10% fetal bovine serum. After adding the amidated oleanolic acid derivatives of different concentrations and mixing uniformly, placing the plate in a carbon dioxide cell incubator (5% CO2) at 37° C. and incubated for 72 hours. Then the relative number of viable cells is determined by the MTT method. In this experiment, the cell proliferation inhibition rate in control group (not treated with any compound) is set as 0%.

[3] = system: NB4; test: MTT leukemia cell proliferation inhibition, NB4; type: cell-based; settings: Homo sapiens, NB-4; for inhibition at 16 µg/mL: NB4, 16 μg/mL compound, 72 h, read-out: IR (inhibition rate); for IC50: NB4, 72 h, MTT
From the text: as §3, §4, §5

[4] = system: CaES-17; test: MTT solid tumor cell proliferation inhibition, CaES-17; type: cell-based, human; settings: Homo sapiens, CaEs17; for inhibition at 16 µg/mL: CaES-17, 16 μg/mL compound, 72 h, read-out: IR (inhibition rate); for IC50: CaES-17, 72 h, MTT
Protocol: as §1, §2

[5] = system: RKO; test: MTT solid tumor cell proliferation inhibition, RKO; type: cell-based; settings: Homo sapiens, 72 h; for inhibition at 16 µg/mL: 16 μg/mL compound, read-out: IR (inhibition rate); for IC50: MTT
Protocol: as §1, §2

[6] = system: Kasumi-1; test: MTT leukemia cell proliferation inhibition, Kasumi-1; type: cell-based; settings: Homo sapiens; for inhibition at 16 µg/mL: Kasumi-1, 16 μg/mL compound, 72 h, read-out: IR (inhibition rate); for IC50: Kasumi-1, 72 h, MTT
From the text: as §3, §4, §5

[7] = system: MG 63; test: MTT solid tumor cell proliferation inhibition, MG 63; type: cell-based, human; settings: for IC50: Homo sapiens, MG 63, 72 h, MTT; for IR (inhibition rate): MG 63, 16 μg/mL compound, 72 h
Protocol: as §1, §2

[8] = system: U87 MG; test: MTT solid tumor cell proliferation inhibition, U87 MG; type: cell-based, human; settings: Homo sapiens, U-87 MG, U87 MG, 72 h; for inhibition at 16 µg/mL: 16 μg/mL compound, read-out: IR (inhibition rate); for IC50: MTT
Protocol: as §1, §2

[9] = system: CNE; test: MTT solid tumor cell proliferation inhibition, CNE; type: cell-based, human; settings: Homo sapiens, CNE, 72 h; for inhibition at 16 µg/mL: 16 μg/mL compound, read-out: IR (inhibition rate); for IC50: MTT
Protocol: as §1, §2

[10] = system: H9; test: MTT leukemia cell proliferation inhibition, H9; type: cell-based, human; settings: Homo sapiens; for inhibition at 16 µg/mL: H9, 16 μg/mL compound, 72 h, read-out: IR (inhibition rate); for IC50: H9, 72 h, MTT
From the text: as §3, §4, §5

[11] = system: K562/adr; test: MTT leukemia cell proliferation inhibition, K562/adr; type: cell-based; settings: Homo sapiens, 72 h; for inhibition at 16 µg/mL: 16 μg/mL compound, read-out: IR (inhibition rate); for IC50: MTT
From the text: as §3, §4, §5

[12] = system: Hela; test: MTT solid tumor cell proliferation inhibition, Hela; type: cell-based, human; settings: Homo sapiens, Hela, 72 h; for inhibition at 16 µg/mL: 16 μg/mL compound, read-out: IR (inhibition rate); for IC50: MTT
Protocol: as §1, §2

[13] = system: MGC803; test: MTT solid tumor cell proliferation inhibition, MGC803; type: cell-based, human; settings: Homo sapiens, MGC-803; for inhibition at 16 µg/mL: MGC803, 16 μg/mL compound, 72 h, read-out: IR (inhibition rate); for IC50: MGC803, 72 h, MTT
Protocol: as §1, §2

[14] = system: Becap37; test: MTT solid tumor cell proliferation inhibition, Becap37; type: cell-based; settings: Homo sapiens; for inhibition at 16 µg/mL: Becap37, 16 μg/mL compound, 72 h, read-out: IR (inhibition rate); for IC50: Becap37, 72 h, MTT
Protocol: as §1, §2

[15] = system: PANC-1; test: MTT solid tumor cell proliferation inhibition, PANC-1; type: cell-based, human; settings: Homo sapiens; for inhibition at 16 µg/mL: PANC-1, 16 μg/mL compound, 72 h, read-out: IR (inhibition rate); for IC50: PANC-1, 72 h, MTT
Protocol: as §1, §2

[16] = system: Hep G2; test: MTT solid tumor cell proliferation inhibition, Hep G2; type: cell-based; settings: Homo sapiens, HepG2; for inhibition at 16 µg/mL: Hep G2, 16 μg/mL compound, 72 h, read-out: IR (inhibition rate); for IC50: Hep G2, 72 h, MTT
Protocol: as §1, §2

[17] = system: RPMI8226; test: MTT multiple myeloma cell proliferation inhibition, RPMI8226; type: cell-based; settings: Homo sapiens, RPMI-8226; for inhibition at 16 µg/mL: RPMI8226, 16 μg/mL compound, 72 h, read-out: IR (inhibition rate); for IC50: RPMI8226, 72 h, MTT
Protocol: Multiple myeloma cell lines: RPMI8226 (multiple myeloma), purchased from Fuxiang Bio-tech Co. Ltd., Shanghai, China.
as §5

[18] = system: PC-3; test: MTT solid tumor cell proliferation inhibition, PC-3; type: cell-based, human; settings: Homo sapiens; for inhibition at 16 µg/mL: PC-3, 16 μg/mL compound, 72 h, read-out: IR (inhibition rate); for IC50: PC-3, 72 h, MTT
Protocol: as §1, §2

[19] = system: SK-OV-3; test: MTT solid tumor cell proliferation inhibition, SK-OV-3; type: cell-based, human; settings: Homo sapiens; for inhibition at 16 µg/mL: SK-OV-3, 16 μg/mL compound, 72 h, read-out: IR (inhibition rate); for IC50: SK-OV-3, 72 h, MTT
Protocol: as §1, §2

[20] = system: Hep-2; test: MTT solid tumor cell proliferation inhibition, Hep-2; type: cell-based, human; settings: Homo sapiens; for inhibition at 16 µg/mL: Hep-2, 16 μg/mL compound, 72 h, read-out: IR (inhibition rate); for IC50: Hep-2, 72 h, MTT
Protocol: as §1, §2

CC1(C)CC[C@]2(NC(=O)c3ccccc3)CC[C@]3(C)C(=CC[C@@H]4[C@@]5(C)CC[C@H](O)C(C)(C)[C@@H]5CC[C@]43C)[C@@H]2C1 [BS-OA-101]
inhibition at 16 µg/mL [1]: 37.6% | IC50 [1]: > 16 µg/mL | inhibition at 16 µg/mL [2]: 30% | IC50 [2]: > 16 µg/mL | inhibition at 16 µg/mL [3]: 96.1% | IC50 [3]: 8.2 µg/mL (≈ 15.4 µM) | inhibition at 16 µg/mL [4]: 25.8% | IC50 [4]: > 16 µg/mL | inhibition at 16 µg/mL [5]: 22.5% | IC50 [5]: > 16 µg/mL | inhibition at 16 µg/mL [6]: 53.8% | IC50 [6]: 15.4 µg/mL (≈ 29 µM) | IC50 [7]: > 16 µg/mL | IR (inhibition rate) [7]: 17.3% | inhibition at 16 µg/mL [8]: 36.4% | IC50 [8]: > 16 µg/mL | inhibition at 16 µg/mL [9]: 36.2% | IC50 [9]: > 16 µg/mL | inhibition at 16 µg/mL [10]: 58.7% | IC50 [10]: 14 µg/mL (≈ 26.3 µM) | inhibition at 16 µg/mL [11]: 88.7% | IC50 [11]: 6.29 µg/mL (≈ 11.8 µM) | inhibition at 16 µg/mL [12]: 57% | IC50 [12]: 15.8 µg/mL (≈ 29.8 µM) | inhibition at 16 µg/mL [13]: 33.2% | IC50 [13]: > 16 µg/mL | inhibition at 16 µg/mL [14]: 18.1% | IC50 [14]: > 16 µg/mL | inhibition at 16 µg/mL [15]: 20.6% | IC50 [15]: > 16 µg/mL | inhibition at 16 µg/mL [16]: 16.1% | IC50 [16]: > 16 µg/mL | inhibition at 16 µg/mL [17]: 97.5% | IC50 [17]: 6.49 µg/mL (≈ 12.2 µM) | inhibition at 16 µg/mL [18]: 45.7% | IC50 [18]: 19.9 µg/mL (≈ 37.4 µM) | inhibition at 16 µg/mL [19]: 39.7% | IC50 [19]: > 16 µg/mL | inhibition at 16 µg/mL [20]: 7.5% | IC50 [20]: > 16 µg/mL

COc1cccc(C(=O)N[C@]23CCC(C)(C)C[C@H]2C2=CC[C@@H]4[C@@]5(C)CC[C@H](O)C(C)(C)[C@@H]5CC[C@@]4(C)[C@]2(C)CC3)c1 [BS-OA-103]
inhibition at 16 µg/mL [1]: 29.8% | IC50 [1]: > 16 µg/mL | inhibition at 16 µg/mL [2]: -2.5% | IC50 [2]: > 16 µg/mL | inhibition at 16 µg/mL [3]: 48.5% | IC50 [3]: 16 µg/mL (≈ 28.5 µM) | inhibition at 16 µg/mL [4]: -5.9% | IC50 [4]: > 16 µg/mL | inhibition at 16 µg/mL [5]: -11.7% | IC50 [5]: > 16 µg/mL | inhibition at 16 µg/mL [6]: 19.9% | IC50 [6]: > 16 µg/mL | IC50 [7]: > 16 µg/mL | IR (inhibition rate) [7]: −25.4% | inhibition at 16 µg/mL [8]: 3.7% | IC50 [8]: > 16 µg/mL | inhibition at 16 µg/mL [9]: 26% | IC50 [9]: > 16 µg/mL | inhibition at 16 µg/mL [10]: 34.1% | IC50 [10]: > 16 µg/mL | inhibition at 16 µg/mL [11]: 87.3% | IC50 [11]: 5.7 µg/mL (≈ 10.1 µM) | inhibition at 16 µg/mL [12]: 38.4% | IC50 [12]: > 16 µg/mL | inhibition at 16 µg/mL [13]: 7% | IC50 [13]: > 16 µg/mL | inhibition at 16 µg/mL [14]: 4.6% | IC50 [14]: > 16 µg/mL | inhibition at 16 µg/mL [15]: 33.7% | IC50 [15]: > 16 µg/mL | inhibition at 16 µg/mL [16]: 8% | IC50 [16]: > 16 µg/mL | inhibition at 16 µg/mL [17]: 90.2% | IC50 [17]: 9.63 µg/mL (≈ 17.1 µM) | inhibition at 16 µg/mL [18]: 24.5% | IC50 [18]: > 16 µg/mL | inhibition at 16 µg/mL [19]: 17.2% | IC50 [19]: > 16 µg/mL | inhibition at 16 µg/mL [20]: 10.6% | IC50 [20]: > 16 µg/mL

— patent US8987502B2, “Oleanolic acid amidate derivatives, preparation methods and uses thereof” (Hangzhou Bensheng Pharmaceutical Co., Ltd., priority 2011, dated 2015)
